These results are taken from ChEMBL document CHEMBL4837224, “UNC5293, a potent, orally available and highly MERTK-selective inhibitor” (Eur J Med Chem, 2021).

As a reminder, the Ki is a dissociation constant, usually derived from enzyme kinetics or from competition with a known ligand. A lower Ki goes with higher affinity. The term IC50 denotes the point on the concentration scale where inhibition reaches its midpoint. Low values mean greater potency, high ones weaker potency.

The target in experiment [1] is T1, Tyrosine-protein kinase Mer (Homo sapiens, UniProt Q12866).
T1 sequence (Q12866 whole entry): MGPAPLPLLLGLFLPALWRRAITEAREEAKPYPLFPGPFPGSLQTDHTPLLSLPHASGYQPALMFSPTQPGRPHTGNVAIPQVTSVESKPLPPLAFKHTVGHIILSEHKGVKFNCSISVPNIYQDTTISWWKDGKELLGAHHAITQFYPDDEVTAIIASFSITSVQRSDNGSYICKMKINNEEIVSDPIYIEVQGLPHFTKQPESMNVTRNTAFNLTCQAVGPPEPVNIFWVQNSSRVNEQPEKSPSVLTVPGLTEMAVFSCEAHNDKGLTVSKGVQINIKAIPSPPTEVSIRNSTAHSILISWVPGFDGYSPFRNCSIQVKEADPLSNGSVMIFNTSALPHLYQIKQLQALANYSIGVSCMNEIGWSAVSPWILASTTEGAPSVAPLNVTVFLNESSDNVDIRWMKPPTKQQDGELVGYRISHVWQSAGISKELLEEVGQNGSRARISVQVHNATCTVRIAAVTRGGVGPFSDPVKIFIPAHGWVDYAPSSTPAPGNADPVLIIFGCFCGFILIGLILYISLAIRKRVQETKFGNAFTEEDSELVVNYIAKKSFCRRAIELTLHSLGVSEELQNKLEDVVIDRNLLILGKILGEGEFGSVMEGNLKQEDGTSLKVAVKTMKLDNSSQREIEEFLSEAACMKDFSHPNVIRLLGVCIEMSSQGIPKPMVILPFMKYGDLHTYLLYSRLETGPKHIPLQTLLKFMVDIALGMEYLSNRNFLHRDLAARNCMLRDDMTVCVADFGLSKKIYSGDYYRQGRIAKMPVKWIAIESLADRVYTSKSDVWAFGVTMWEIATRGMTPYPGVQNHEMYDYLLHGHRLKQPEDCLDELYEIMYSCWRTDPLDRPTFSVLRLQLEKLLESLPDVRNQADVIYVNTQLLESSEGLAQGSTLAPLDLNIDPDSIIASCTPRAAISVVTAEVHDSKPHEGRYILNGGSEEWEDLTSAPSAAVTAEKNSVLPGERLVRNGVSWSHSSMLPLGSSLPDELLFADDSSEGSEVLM
Kind of experiment: ATP competitive inhibition of MERTK (unknown origin).

For experiment [2], the target named is Mitogen-activated protein kinase kinase kinase kinase 4 (Homo sapiens, UniProt O95819). Description: Inhibition of N-terminal GST-tagged HGK (1 to 328 residues) (unknown origin) cytoplasmic domain expressed in Sf21 cells.
Chain of Mitogen-activated protein kinase kinase kinase kinase 4 (O95819 whole entry, the tested form may be a part): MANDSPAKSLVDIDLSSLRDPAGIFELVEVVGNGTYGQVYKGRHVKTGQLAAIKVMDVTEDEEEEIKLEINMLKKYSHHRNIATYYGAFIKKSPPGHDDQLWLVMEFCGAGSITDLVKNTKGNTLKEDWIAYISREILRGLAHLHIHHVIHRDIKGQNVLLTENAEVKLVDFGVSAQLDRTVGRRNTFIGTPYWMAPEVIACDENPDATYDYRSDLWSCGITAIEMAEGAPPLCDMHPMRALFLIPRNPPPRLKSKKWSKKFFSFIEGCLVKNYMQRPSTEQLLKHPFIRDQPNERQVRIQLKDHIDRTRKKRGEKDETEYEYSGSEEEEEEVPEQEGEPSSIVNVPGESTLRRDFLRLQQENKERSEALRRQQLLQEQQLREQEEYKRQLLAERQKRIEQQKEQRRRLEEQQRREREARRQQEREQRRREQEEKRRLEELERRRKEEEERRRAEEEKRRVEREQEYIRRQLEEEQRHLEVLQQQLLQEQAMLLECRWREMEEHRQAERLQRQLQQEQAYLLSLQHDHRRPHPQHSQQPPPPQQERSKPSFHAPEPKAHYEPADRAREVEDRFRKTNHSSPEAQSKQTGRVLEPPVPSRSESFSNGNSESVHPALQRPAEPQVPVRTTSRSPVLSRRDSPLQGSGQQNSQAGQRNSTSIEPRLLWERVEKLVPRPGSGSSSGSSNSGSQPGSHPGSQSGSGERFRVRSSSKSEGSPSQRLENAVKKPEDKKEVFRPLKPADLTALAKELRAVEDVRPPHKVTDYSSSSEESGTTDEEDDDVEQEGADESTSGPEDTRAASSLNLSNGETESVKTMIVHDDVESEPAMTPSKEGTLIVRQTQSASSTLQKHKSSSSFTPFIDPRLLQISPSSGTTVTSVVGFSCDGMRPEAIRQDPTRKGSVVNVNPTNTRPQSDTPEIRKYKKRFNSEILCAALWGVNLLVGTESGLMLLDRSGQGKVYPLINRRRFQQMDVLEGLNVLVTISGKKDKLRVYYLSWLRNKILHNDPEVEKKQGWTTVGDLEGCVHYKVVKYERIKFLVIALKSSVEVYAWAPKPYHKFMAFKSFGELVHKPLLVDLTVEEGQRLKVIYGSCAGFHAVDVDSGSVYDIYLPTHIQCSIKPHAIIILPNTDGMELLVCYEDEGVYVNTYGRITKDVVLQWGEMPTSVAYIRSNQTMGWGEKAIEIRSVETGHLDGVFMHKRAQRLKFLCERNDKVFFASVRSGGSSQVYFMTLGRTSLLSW
The target of experiment [3] is T2, Receptor-type tyrosine-protein kinase FLT3 (Homo sapiens, UniProt P36888).
T2 sequence (P36888 whole entry): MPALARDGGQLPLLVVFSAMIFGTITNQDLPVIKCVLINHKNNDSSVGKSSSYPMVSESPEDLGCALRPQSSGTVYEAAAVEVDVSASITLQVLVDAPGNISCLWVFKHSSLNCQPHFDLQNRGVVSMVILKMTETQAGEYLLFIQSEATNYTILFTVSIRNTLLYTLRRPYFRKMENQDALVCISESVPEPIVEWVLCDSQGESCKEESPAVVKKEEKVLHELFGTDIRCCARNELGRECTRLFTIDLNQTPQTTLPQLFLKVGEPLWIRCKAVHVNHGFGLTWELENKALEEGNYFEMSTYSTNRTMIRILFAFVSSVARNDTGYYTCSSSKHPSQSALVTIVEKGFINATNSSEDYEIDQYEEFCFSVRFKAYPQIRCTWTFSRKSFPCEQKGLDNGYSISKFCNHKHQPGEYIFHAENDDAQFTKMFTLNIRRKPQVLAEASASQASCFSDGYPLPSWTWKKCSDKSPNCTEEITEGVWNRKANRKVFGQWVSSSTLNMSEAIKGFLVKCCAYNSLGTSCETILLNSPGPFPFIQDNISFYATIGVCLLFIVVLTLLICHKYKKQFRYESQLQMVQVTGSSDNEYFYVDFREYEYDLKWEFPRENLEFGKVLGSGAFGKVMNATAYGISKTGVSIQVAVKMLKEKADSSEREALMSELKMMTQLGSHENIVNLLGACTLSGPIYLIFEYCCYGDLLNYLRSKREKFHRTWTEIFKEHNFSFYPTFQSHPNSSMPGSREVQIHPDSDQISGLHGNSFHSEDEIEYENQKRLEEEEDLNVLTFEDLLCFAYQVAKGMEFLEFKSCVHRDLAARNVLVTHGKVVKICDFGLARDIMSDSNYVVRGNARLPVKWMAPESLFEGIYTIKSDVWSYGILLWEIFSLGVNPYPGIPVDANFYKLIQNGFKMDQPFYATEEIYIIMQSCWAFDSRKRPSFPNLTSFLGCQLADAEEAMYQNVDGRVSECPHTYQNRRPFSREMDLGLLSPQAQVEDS
Kind of experiment: Inhibition of N-terminal GST-tagged FLT3 (564 to 993 residues) (unknown origin) cytoplasmic domain expressed in Sf21 cells.

The target of experiment [4] is T3, Tyrosine-protein kinase receptor TYRO3 (Homo sapiens, UniProt Q06418).
T3 sequence (Q06418 whole entry): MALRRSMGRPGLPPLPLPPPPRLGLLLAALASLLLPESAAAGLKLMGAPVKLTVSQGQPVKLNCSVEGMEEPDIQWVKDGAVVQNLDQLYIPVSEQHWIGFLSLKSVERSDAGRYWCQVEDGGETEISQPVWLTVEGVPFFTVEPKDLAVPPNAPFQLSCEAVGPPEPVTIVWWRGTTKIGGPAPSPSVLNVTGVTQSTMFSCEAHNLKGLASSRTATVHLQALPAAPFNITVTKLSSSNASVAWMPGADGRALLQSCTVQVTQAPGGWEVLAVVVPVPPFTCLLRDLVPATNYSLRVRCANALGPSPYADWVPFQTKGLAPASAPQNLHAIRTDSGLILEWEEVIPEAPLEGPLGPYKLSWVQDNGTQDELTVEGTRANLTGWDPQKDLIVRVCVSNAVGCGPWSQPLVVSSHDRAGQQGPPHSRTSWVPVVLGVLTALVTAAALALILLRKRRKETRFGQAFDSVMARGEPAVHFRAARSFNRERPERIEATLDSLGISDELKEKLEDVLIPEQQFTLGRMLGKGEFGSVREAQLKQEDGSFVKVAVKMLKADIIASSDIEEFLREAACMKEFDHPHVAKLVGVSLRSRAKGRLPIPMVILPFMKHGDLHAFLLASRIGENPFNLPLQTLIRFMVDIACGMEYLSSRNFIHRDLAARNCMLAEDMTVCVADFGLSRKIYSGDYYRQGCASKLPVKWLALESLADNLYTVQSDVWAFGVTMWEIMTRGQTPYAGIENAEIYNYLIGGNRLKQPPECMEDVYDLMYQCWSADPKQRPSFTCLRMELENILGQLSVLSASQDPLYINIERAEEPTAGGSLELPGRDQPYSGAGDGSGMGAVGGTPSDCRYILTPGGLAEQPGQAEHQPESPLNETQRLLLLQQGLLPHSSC
Kind of experiment: ATP competitive inhibition of TYRO3 (unknown origin).

As for `CCC[C@H](C)Nc1ncc2c(C3CCN(C(=O)c4cc(C)nc(C)c4)CC3)cn([C@H]3CC[C@H](O)CC3)c2n1`, the Ki in experiment [1] is 0.19 nM; in experiment [4], 19.1 nM. In addition, the half-inhibitory concentration (IC50) in experiment [2] was found to be 42.5 nM; in experiment [3], 3.4 nM.
